Measurements taken from patent US20150354009A1, “COLORECTAL CANCER CLASSIFICATION WITH DIFFERENTIAL PROGNOSIS AND PERSONALIZED THERAPEUTIC RESPONSES” (ECOLE POLYTECHNIQUE FEDERALE DE LAUSANNE (EPFL), priority 2012, published 2015).

Tested on: CRC cell lines
Assay: Drug response in cell lines (CellTiter-Glo proliferation, 72 h)
Assay type: cell-based, human
Details: PHA-665752 125 nM, relative to vehicle-treated cells (FIG. 3E)
Experimental: Colon cancer cell lines were grown in DMEM (Gibco, USA) plus 10% FBS (Invitrogen, USA) without antibiotics/antimycotics. All the cell lines were confirmed to be negative for mycoplamsa by PCR (VenorGeM kit, Sigma, USA) prior to use and were tested monthly.
Proliferation was monitored using CellTiter-Glo® assay kit according to the manufacturer's instruction (Promega, Dubendorf, Switzerland) on day 3 (72 h).

## Cc1[nH]c(/C=C2\C(=O)Nc3ccc(S(=O)(=O)Cc4c(Cl)cccc4Cl)cc32)c(C)c1C(=O)N1CCC[C@@H]1CN1CCCC1 [cMet inhibitor, PHA-665752]
  sensitivity to cMet inhibition, CR-TA versus CS-TA cell lines: CR-TA cell lines were much more sensitive to cMet inhibition than CS-TA cell lines
